Experimental data: paper PMC3644221 (Toxicology letters, 2013)

Biological target: CYP1A1 (Homo sapiens, UniProt P04798)
Experiment: inhibition of CYP1A1-specific Luciferin-CEE activity
Assay type: biochemical

Sequence of CYP1A1 (P04798 whole entry): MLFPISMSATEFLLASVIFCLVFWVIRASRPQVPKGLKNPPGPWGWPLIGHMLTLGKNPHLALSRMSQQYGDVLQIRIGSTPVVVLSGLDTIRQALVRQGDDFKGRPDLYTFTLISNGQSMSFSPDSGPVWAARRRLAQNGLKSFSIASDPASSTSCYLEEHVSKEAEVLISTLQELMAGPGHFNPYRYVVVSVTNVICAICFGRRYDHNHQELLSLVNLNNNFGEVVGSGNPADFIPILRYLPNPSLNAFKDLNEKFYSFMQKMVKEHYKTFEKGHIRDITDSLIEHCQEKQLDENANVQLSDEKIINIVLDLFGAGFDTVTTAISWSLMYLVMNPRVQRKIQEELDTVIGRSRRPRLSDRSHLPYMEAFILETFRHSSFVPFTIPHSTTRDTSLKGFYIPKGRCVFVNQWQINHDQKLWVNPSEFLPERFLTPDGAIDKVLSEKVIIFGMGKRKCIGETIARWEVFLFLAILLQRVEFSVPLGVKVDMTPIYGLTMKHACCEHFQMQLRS

Compound	IC50 [µM]
Oc1ccc(-c2[o+]c3cc(O)cc(O)c3cc2O)cc1 [pelargonidin]	33
Oc1cc(O)c2cc(O)c(-c3cc(O)c(O)c(O)c3)[o+]c2c1 [delphinidin]	77
